One assay concerns the target T1, UCH-L3 (Homo sapiens, UniProt P15374).
T1 sequence (P15374 1-230): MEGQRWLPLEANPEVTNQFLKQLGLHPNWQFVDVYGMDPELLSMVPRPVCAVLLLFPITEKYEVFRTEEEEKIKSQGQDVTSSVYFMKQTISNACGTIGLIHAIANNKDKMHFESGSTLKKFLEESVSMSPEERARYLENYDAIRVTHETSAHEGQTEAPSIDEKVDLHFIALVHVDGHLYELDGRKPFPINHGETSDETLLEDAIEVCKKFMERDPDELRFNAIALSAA
The assay can be described thus: UCH-L3 activity assay (Ub-AMC substrate). The format is biochemical. To be noted: Ub-AMC 300 nM, UCH-L3 13 pM. Here is the method: UCH-L3 was diluted in USP buffer (50 mM Tris HCl; 0.5 mM EDTA; 5 mM DTT; 0.01% Triton X-100; Bovine Serum Albumin 0.05 mg·ml^−1 pH7.6). Compounds stocks (100 mM) were stored at −20° C. in DMSO. Compounds were tested at different concentrations: from 200 μM to 91 nM.
(§1) Reactions were performed as duplicates in Black 384 well plates (small volume microplates; Greiner; 10 μl final reaction volume). The substrate concentration for UCH-L3 was 300 nM Ub-AMC (Boston Biochem). The concentration of the enzyme (UCH-L3) in specificity assays was 13 pM. The concentrations were determined in order to perform specificity assays under initial velocities at fixed substrate concentration. Compounds were pre-incubated with enzymes for 30 minutes at 25° C. Reactions were initiated by addition of substrate to the plates containing the enzymes (+/− compounds) diluted in assay buffer. Reactions were incubated for 60 minutes at 37° C. Reactions were stopped by adding acetic acid (100 mM final). Readings were performed on a Pherastar Fluorescent Reader (BMG). λ Emission 380 nm; λ Excitation=460 nm. Data (mean values +/− standard deviation) were analyzed as % of control (no compound) and plotted as percentage versus the Log of the compound concentration using GraphPad (Prism). Data were fitted to a sigmoidal model (variable slope).

The next assay has as its target T2, Caspase 3 (Homo sapiens, UniProt P42574).
T2 sequence (P42574 29-175 limits assumed): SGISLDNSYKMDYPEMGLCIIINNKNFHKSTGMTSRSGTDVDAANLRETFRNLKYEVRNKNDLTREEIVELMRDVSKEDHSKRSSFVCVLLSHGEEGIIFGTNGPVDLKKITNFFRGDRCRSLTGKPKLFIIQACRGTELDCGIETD
T2 sequence (P42574 176-277 limits assumed): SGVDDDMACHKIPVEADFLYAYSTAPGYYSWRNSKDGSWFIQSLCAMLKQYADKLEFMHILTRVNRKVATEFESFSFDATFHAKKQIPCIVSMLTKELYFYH
As to the kind of experiment: Caspase 3 activity assay (Ac-DEVD-AMC substrate). The format is biochemical. Conditions: Ac-DEVD-AMC 250 nM, Caspase 3 1.6 nM. How it is done: Caspase 3 was diluted in Caspase 3 buffer (100 mM Hepes pH 7.5; 10% sucrose; 0.1% CHAPS). Compounds stocks (100 mM) were stored at −20° C. in DMSO. Compounds were tested at different concentrations: from 200 μM to 91 nM.
as §1, with “caspase 3 specificity assay” for “UCH-L3”, “250” for “300”, “(Ac-DEVD-AMC; Promega).” for “Ub-AMC (Boston Biochem).”, “(Caspase 3)” for “(UCH-L3)”, “1.6 nM.” for “13 pM.”, “values+/−” for “values +/−”

Structures are written as SMILES. A value given as a limit tells only on which side of the number the result lay.

As usually defined, the IC50 is the concentration that gives 50% inhibition. Read a high IC50 as a need for much substance.

With `COc1ccc(CN2CCC(CNC(=O)c3ccc4c(Cl)c5c(nc4c3)CCCC5)CC2)cc1` [Example 22, 9-chloro-N-((1-(4-methoxybenzyl)piperidin-4-yl)methyl)-5,6,7,8-tetrahydroacridine-3-carboxamide], the half-inhibitory concentration (IC50) against UCH-L3 and against Caspase 3 was above 200 µM in each case.

With `CN1CCCC1CCNC(=O)c1ccc2c(Cl)c3c(nc2c1)CCCC3` (stereo not drawn) [Example 17, 9-chloro-N-(2-(1-methylpyrrolidin-2-yl)ethyl)-5,6,7,8-tetrahydroacridino-3-carboxamide], the IC50 on UCH-L3 and against Caspase 3 was above 200 µM in each case.

For the compound `CN(C)c1ccc(CN2CCC(CNC(=O)c3ccc4c(Cl)c5c(nc4c3)CCCC5)CC2)cc1` [Example 23], the IC50 against UCH-L3 and on Caspase 3 was above 200 µM throughout.

For `O=C(Nc1cccc(CN2CCCC2)c1)c1ccc2c(Cl)c3c(nc2c1)CCCC3` [Example 19, 9-chloro-N-(3-(pyrrolidin-1-ylmethyl)phenyl)-5.6,7,8-tetrahydroacridine-3-carboxamide], the IC50 at UCH-L3 and on Caspase 3 was above 200 µM each time.

For `O=C(NCc1ccc(CN2CCCC2)cc1)c1ccc2c(Cl)c3c(nc2c1)CCCC3` [Example 21, 9-chloro-N-(4-(pyrrolidin-1-ylmethyl)benzyl)-5,6,7,8-tetrahydroacridine-3-carboxamide], the IC50 at UCH-L3 and on Caspase 3 was above 200 µM each time.

For `O=C(NCC1CCNCC1)c1ccc2c(Cl)c3c(nc2c1)CCCC3` [Example 24, 9-chloro-N-((piperidin-4-yl)methyl)-5,6,7,8-tetrahydroacridine-3-carboxamide], the IC50 at UCH-L3 and against Caspase 3 was above 200 µM each time.

As to `O=C(NCc1cccc(CN2CCCC2)c1)c1ccc2c(Cl)c3c(nc2c1)CCCC3` [Example 18, 9-chloro-N-(3-(pyrrolidin-1-ylmethyl)benzyl)-5,6,7,8-tetrahydroacridine-3-carboxamide], the IC50 against UCH-L3 and against Caspase 3 was above 200 µM throughout.

With `CC1CCCCN1CCCNC(=O)c1ccc2c(Cl)c3c(nc2c1)CCCC3` (stereo not drawn) [Example 20, 9-chloro-N-(3-(2-methylpiperidin-1-yl)propyl)-516,7,8-tetrahydroacridine-3-carboxamide], the IC50 against UCH-L3 and against Caspase 3 was above 200 µM throughout.

For `O=C(NCC(CN1CCCC1)C(O)c1ccccc1)c1ccc2c(Cl)c3c(nc2c1)CCCC3` (stereo not drawn) [Example 25, 9-chloro-N-(3-hydroxy-3-phenyl-2-pyrrolidin-1-ylmethylpropyl)-5,6,7,8-tetrahydroacridine-3-carboxamide], the IC50 against UCH-L3 and against Caspase 3 was above 200 µM in each case.

For the origin of these results see patent publication US9328093B2, “Selective inhibitors of ubiquitin specific protease 7, the pharmaceutical compositions thereof and their therapeutic applications” (HYBRIGENICS SA, priority 2010, dated 2016).
